Measurements: patent publication US10365268B2, “Methods for identifying modulators of membrane potentials in bipolar disorder and attention deficit hyperactivity disorder” (PsychNostics, LLC, priority 2011, dated 2019)
Entries after “also recorded” stand apart in the source; their conditions may differ.

How the values were obtained:
[1] = tested on: RBC; assay: membrane potential ratio (MPR) test: agent added to K+-free, EtOH-containing test buffer versus reference buffer; type: cell-based, human; conditions: for EtOH effect (hSK4 opening / hyperpolarization): hSK4 blockers added to the test buffer
Excerpt: It is essential to understand these differences so that the underlying pathophysiology of these disorders is better understood leading to better diagnostic markers and drug targets. […] Membrane potential ratio (MPR™) is the ratio between the membrane potential in the test buffer and that in the reference buffer. The reference buffer contains NaCl, CaCl2, glucose and Hepes whereas the test buffer contains ethyl alcohol (EtOH) in addition to these compounds. […] The role of the absence of K^+ ions in the buffer on membrane potential and the addition of EtOH needs to be understood in order to explain their effects.
The assay uses a reference buffer or regular buffer and a test buffer. The “reference buffer” or “regular buffer” contains only Na^+, Ca^2+, and HEPES without any other reagents. The “test buffer” containing no potassium (K^+-free buffer) is a HEPES buffer without potassium (4 mM NaHCO3, 5 mM HEPES, 134 mM NaCl, 2.3 mM CaCl2, and 5 mM glucose) and with a K^+ channel altering agent, at a pH of 6.8 (range of 6.6 to 7.0). The test buffer may also contain 30 μM ethacrynic acid dissolved in EtOH as solvent.
In order to verify the CAK channel is involved in the membrane potential of the RBC used for the membrane potential ratios (MPR™) tests, the CAK channel blockers, quinine and clotrimazole were added to the test buffer and the membrane potential ratios (MPR™) was determined. The membrane potential ratios (MPR™) values are shown in box plots. […] Similarly boxes 3, 4 and 5 show the results for clotrimazole (CLTX). Box 3 represents no CLTX, while box 4 for 2.5 micro molar CLTX and box 5 for 5 micro molar concentrations in the test buffer.
Blood samples from a patient were suspended in a reference buffer (reference buffer sample) as well as in a test buffer (test buffer sample) with 3,3′-dihexyloxacarbocyanine iodide (DiOC6) dye, incubated, spun, drained and the […] resuspended in their respective buffers without the dye. The resuspended buffer samples were then distributed in three separate 96 well plates and tested in a Plate Reader for fluorescence intensity. The Plate Reader recorded a data matrix of each of the 96 well plates and the data matrix was transferred to a Template to calculate the ratio between the test buffer sample and the corresponding reference buffer sample. The resulting ratios were calculated to determine the mean value, the standard deviation and the coefficient of variation. This procedure was repeated two more times and the resulting mean value, standard deviation and the coefficient of variation calculated in the same manner. The Membrane Potential Ratio (MPR™) obtained from the mean values was 0.781 (with a standard deviation of 0.014 and coefficient of variation of 1.76). Based on the MPR™ value of 0.781, the patient was diagnosed to have ADHD (with a greater than 97% probability).

[2] = tested on: diacylglycerol kinase; conditions: human red blood cell membranes; de Courcelles et al. 1985; cited from earlier work
[3] = tested on: calmodulin-dependent protein kinase II (CaM-kinase II); conditions: Ishida et al. 1995; cited from earlier work
[4] = CAK channel blockers added to the test buffer (quinine 1 mM; CLTX 2.5 and 5 micro molar), FIG. 2

In the case of `Cc1nc2sccn2c(=O)c1CCN1CCC(=C(c2ccccc2)c2ccc(F)cc2)CC1` [ALX, 6-[2-[4-[(4-fluorophenyl)phenylmethylene]-1-piperidinyl]ethyl]-7-methyl-5H-thiazolo[3,2-a]pyrimidin-5-one], the “effect on membrane potential” value ([1]; three concentrations 2.5 μl, 5 μl and 7.5 μl, FIG. 7) is given as “depolarizes the membrane potential” and the “inhibition of diacylglycerol kinase” value [2] is given as “found to inhibit diacylglycerol kinase”.
For `Clc1ccccc1C(c1ccccc1)(c1ccccc1)n1ccnc1` [clotrimazole], the “effect on membrane potentials” value [1, 4] was “depolarized the membrane potentials robustly” and the “EtOH effect (hSK4 opening / hyperpolarization)” value ([1]; FIG. 2) was “blocked”.
With `C=C[C@H]1C[N@@]2CC[C@H]1C[C@H]2[C@H](O)c1ccnc2ccc(OC)cc12` [quinine] the “membrane potential ratio (MPR) values” ([1]; 1 mM quinine in the test buffer compared to test buffer without quinine, FIG. 2) was “increased”, the “effect on membrane potentials” value [1, 4] was “depolarized the membrane potentials robustly” and the “EtOH effect (hSK4 opening / hyperpolarization)” value ([1]; FIG. 2) was “blocked”.
With `CN[C@@H]1C[C@H]2O[C@@](C)([C@@H]1OC)n1c3ccccc3c3c4c(c5c6ccccc6n2c5c31)C(=O)NC4` [Staurosporine, staurosporine] the “effect on membrane potentials” value ([1]; three concentrations (250 nM, 500 nM and 750 nM) in the test buffer, FIG. 5) was “hyperpolarizes the membrane potentials very effectively” and the “effect on membrane potentials” value ([1]; three concentrations (250 nM, 500 nM and 750 nM) in the test buffer, FIG. 5, listed as staurosporine) was “hyperpolarizes the membrane potential in a concentration dependent manner”.
In the case of “autocamtide-2-related inhibitory peptide [AIP]”, the “effect on membrane potential” value ([1]; 5 μM concentration, FIG. 6) is given as “depolarizes the membrane potential robustly” and the “inhibition of CaM-kinase II” value [3] is given as “highly specific and potent inhibitor”.
In the case of `CCCCCCCCCCCCCC(=O)O[C@@H]1[C@@H](C)[C@@]2(O)[C@@H](C=C(CO)C[C@]3(O)C(=O)C(C)=C[C@@H]23)[C@@H]2C(C)(C)[C@]12OC(C)=O` [PMA, phorbol 12-myristate 13-acetate], the “effect on membrane potential ratio (MPR) / cell polarization” value ([1]; 2.5 μM in the test buffer versus without PMA, FIG. 4) is reported as “depolarizes the cells very effectively”.
For `Nc1ncnc2c1nc(Sc1ccc(Cl)cc1)n2[C@@H]1O[C@@H]2COP(=O)(O)O[C@H]2[C@H]1O` [8-CPT, 8-CPT-cAMP], the “effect on membrane potential ratio (MPR) / membrane potentials” value ([1]; 50 μM in the test buffer, FIG. 3) was “did not have any effect; also recorded: no effect”.
